Experimental data from US7498349B2, “Biaryl compounds having anti-infective activity” (Genesoft Pharmaceuticals, Inc., priority 2002, dated 2009).

Legend:
E. coli ATCC 25922 = assay: MIC, NCCLS broth microdilution assay; assay type: cell-based, Escherichia coli; conditions: E. coli ATCC 25922
C. albicans ATCC 38247 = assay: MIC, antifungal assay; assay type: cell-based, Candida albicans; conditions: C. albicans ATCC 38247
From the text: In vitro biological activity data were collected for a variety of microorganisms, including Bacillus cereus (ATCC 11778), Staphylococcus aureus (ATCC 33591; ATCC 27660, a methicillin resistant strain (MRSA); ATCC 13709, a methicillin sensitive strain (MSSA)), Escherichia coli (ATCC 25922), Enterococcus faecalis (ATCC 29212), Streptococcus pneumoniae (ATCC 49619; ATCC 51422, a penicillin resistant strain (PRSP)), Enterococcus faecium (ATCC 51559, a vancomycin resistant strain (VRE)), and Staphylococcus epidermidis (ATCC 12228). Additionally, antifungal activity data were collected for Candida albicans (ATCC 38247).
The minimal inhibition concentration (MIC) of these compounds was determined using the National Committee for Clinical Laboratory Standards (NCCLS) broth microdilution assay in microtiter plates, as set forth in: (1) the guidelines of the National Committee for Clinical Laboratory Standards (NCCLS) Document M7-A4 (NCCLS, 1997); (2) the guidelines of the National Committee for Clinical Laboratory Standards (NCCLS) Document M11-A4 (NCCLS, 1997); and (3) the guidelines and reference method of the National Committee for Clinical Laboratory Standards (NCCLS) Document M27 -T (NCCLS, 1995). For antifungal assays, the method recommended in Murray, PR., 1995 Manual of Clinical Microbiology (ASM Press, Washington, D.C.), was employed.

S. pneumoniae ATCC 49619 = assay: MIC, NCCLS broth microdilution assay; assay type: cell-based, Streptococcus pneumoniae; conditions: S. pneumoniae ATCC 49619
E. faecalis ATCC 29212 = assay: MIC, NCCLS broth microdilution assay; assay type: cell-based, Enterococcus faecalis; conditions: E. faecalis ATCC 29212
S. aureus ATCC 13709 = assay: MIC, NCCLS broth microdilution assay; assay type: cell-based, Staphylococcus aureus; conditions: S. aureus ATCC 13709, methicillin sensitive strain (MSSA)
From the text: (§1) In vitro biological activity data were collected for a variety of microorganisms, including Bacillus cereus (ATCC 11778), Staphylococcus aureus (ATCC 33591; ATCC 27660, a methicillin resistant strain (MRSA); ATCC 13709, a methicillin sensitive strain (MSSA)), Escherichia coli (ATCC 25922), Enterococcus faecalis (ATCC 29212), Streptococcus pneumoniae (ATCC 49619; ATCC 51422, a penicillin resistant strain (PRSP)), Enterococcus faecium (ATCC 51559, a vancomycin resistant strain (VRE)), and Staphylococcus epidermidis (ATCC 12228).
(§2) The minimal inhibition concentration (MIC) of these compounds was determined using the National Committee for Clinical Laboratory Standards (NCCLS) broth microdilution assay in microtiter plates, as set forth in: (1) the guidelines of the National Committee for Clinical Laboratory Standards (NCCLS) Document M7-A4 (NCCLS, 1997); (2) the guidelines of the National Committee for Clinical Laboratory Standards (NCCLS) Document M11-A4 (NCCLS, 1997); and (3) the guidelines and reference method of the National Committee for Clinical Laboratory Standards (NCCLS) Document M27 -T (NCCLS, 1995).

B. cereus ATCC 11778 = assay: MIC, NCCLS broth microdilution assay; assay type: cell-based, Bacillus cereus; conditions: B. cereus ATCC 11778
S. aureus ATCC 33591 = assay: MIC, NCCLS broth microdilution assay; assay type: cell-based, Staphylococcus aureus; conditions: S. aureus ATCC 33591
S. aureus ATCC 27660 = assay: MIC, NCCLS broth microdilution assay; assay type: cell-based, Staphylococcus aureus; conditions: S. aureus ATCC 27660, methicillin resistant strain (MRSA)
From the text: as §1, §2

Row | Structure (SMILES) | Minimum Inhibitory Concentration (MIC) (E. coli ATCC 25922) | Minimum Inhibitory Concentration (MIC) (C. albicans ATCC 38247) | Minimum Inhibitory Concentration (MIC) (S. pneumoniae ATCC 49619) | Minimum Inhibitory Concentration (MIC) (E. faecalis ATCC 29212) | Minimum Inhibitory Concentration (MIC) (S. aureus ATCC 13709) | Minimum Inhibitory Concentration (MIC) (B. cereus ATCC 11778) | Minimum Inhibitory Concentration (MIC) (S. aureus ATCC 33591) | Minimum Inhibitory Concentration (MIC) (S. aureus ATCC 27660)
1 | O=C(Nc1ccc(-c2cc3ccccc3o2)cc1)c1ccc(Cl)cc1NCCN1CCNCC1 [Compound A-26] | >32 µg/mL | >32 µg/mL | + (12 ≦ MIC ≦ 32) | ++ (4 < MIC < 12) | +++ (MIC ≦ 4) | + (12 ≦ MIC ≦ 32) | ++ (4 < MIC < 12) | ++ (4 < MIC < 12)
2 | Cc1cc(NC(=O)c2cccnc2NCCCCN)ccc1-c1cc2ccccc2o1 [Compound A-29] | >32 µg/mL | + (12 ≦ MIC ≦ 32) | + (12 ≦ MIC ≦ 32) | +++ (MIC ≦ 4) | +++ (MIC ≦ 4) | +++ (MIC ≦ 4) | +++ (MIC ≦ 4) | +++ (MIC ≦ 4)
3 | O=C(Nc1ccc(-c2cc3ccccc3s2)cc1)c1nsc(NCCN2CCCC2)c1Cl [Compound A-46] | >32 µg/mL | >32 µg/mL | >32 µg/mL | >32 µg/mL | + (12 ≦ MIC ≦ 32) | >32 µg/mL | >32 µg/mL | + (12 ≦ MIC ≦ 32)
4 | CN1CCN(CCNc2snc(C(=O)Nc3ccc(-c4cc5ccccc5[nH]4)cc3)c2Cl)CC1 [Compound A-61] | >32 µg/mL | +++ (MIC ≦ 4) | >32 µg/mL | >32 µg/mL | >32 µg/mL | >32 µg/mL | >32 µg/mL | >32 µg/mL
5 | NCCNc1ncccc1C(=O)Nc1ccc(-c2cc3ccccc3o2)nc1 [Compound A-40] | + (12 ≦ MIC ≦ 32) | + (12 ≦ MIC ≦ 32) | >32 µg/mL | ++ (4 < MIC < 12) | ++ (4 < MIC < 12) | + (12 ≦ MIC ≦ 32) | + (12 ≦ MIC ≦ 32) | ++ (4 < MIC < 12)
6 | Cc1cc(NC(=O)c2cccnc2NCCCN(C)C)ccc1-c1cc2ccccc2o1 [Compound A-30] | >32 µg/mL | + (12 ≦ MIC ≦ 32) | + (12 ≦ MIC ≦ 32) | +++ (MIC ≦ 4) | +++ (MIC ≦ 4) | ++ (4 < MIC < 12) | +++ (MIC ≦ 4) | +++ (MIC ≦ 4)
7 | CN(CCCN)CCCNc1ncccc1C(=O)Nc1ccc(-c2cc3ccccc3s2)nc1 [Compound A-76] | + (12 ≦ MIC ≦ 32) | + (12 ≦ MIC ≦ 32) | + (12 ≦ MIC ≦ 32) | ++ (4 < MIC < 12) | +++ (MIC ≦ 4) | + (12 ≦ MIC ≦ 32) | ++ (4 < MIC < 12) | +++ (MIC ≦ 4)
8 | O=C(Nc1ccc(-c2cc3ccccc3s2)nc1)c1cccnc1NCCN1CCNCC1 [Compound A-73] | >32 µg/mL | >32 µg/mL | >32 µg/mL | >32 µg/mL | >32 µg/mL | >32 µg/mL | >32 µg/mL | >32 µg/mL
9 | O=C(Nc1ccc(-c2cc3ccccc3s2)nc1)c1cccnc1NCCN1CCCCC1 [Compound A-72] | >32 µg/mL | >32 µg/mL | >32 µg/mL | >32 µg/mL | >32 µg/mL | >32 µg/mL | >32 µg/mL | >32 µg/mL
10 | Cc1ccc2nc(-c3ccc(NC(=O)c4nsc(NCCCN(C)C)c4Cl)cc3)sc2c1 [Compound A-54] | >32 µg/mL | +++ (MIC ≦ 4) | + (12 ≦ MIC ≦ 32) | +++ (MIC ≦ 4) | +++ (MIC ≦ 4) | +++ (MIC ≦ 4) | +++ (MIC ≦ 4) | +++ (MIC ≦ 4)
11 | O=C(Nc1ccc(-c2cc3ccccc3o2)nc1)c1ccc(Cl)cc1NCCN1CCCC1 [Compound A-43] | >32 µg/mL | >32 µg/mL | + (12 ≦ MIC ≦ 32) | ++ (4 < MIC < 12) | ++ (4 < MIC < 12) | ++ (4 < MIC < 12) | ++ (4 < MIC < 12) | ++ (4 < MIC < 12)
12 | CN(C)CCCNc1snc(C(=O)Nc2ccc(-c3cc4ccccc4o3)nc2)c1Cl [Compound A-36] | >32 µg/mL | ++ (4 < MIC < 12) | + (12 ≦ MIC ≦ 32) | ++ (4 < MIC < 12) | +++ (MIC ≦ 4) | ++ (4 < MIC < 12) | ++ (4 < MIC < 12) | + (12 ≦ MIC ≦ 32)
